Experimental data taken from patent US6506576B2 (priority 2001, dated 2003).
Like-named read-outs stand apart in the source and are kept apart here.

Legend:
[1] = system: cerebellar granule cells; details: for concentration at which maximal effects on granule cell viability/lysis were observed / concentration at which significant effects on granule cell viability/lysis were initially detected: MTS reduction and LDH release, independent of culture condition (GCSF or NB-B27)
Procedure: Viability of the cerebellar granule cell culture was assessed using CellTiter 96® AQueous One Solution Cell Proliferation reagent (Promega, G3580). This colorimetric assay employs, 3-(4,5-dimethylthiazol-2-yl)-5-(3-carboxymethoxyphenyl)-2-(4-sulfophenyl)-2H-tetrazolium (MTS) and the electron coupling reagent, phenazine ethosulfate (PES). […] Briefly, prior to each MTS assay, 100 μl of media was removed from each well, transferred to new 96-well plate for subsequent LDH release analysis. To each cell containing well, 20 μl of MTS tetrazolium reagent was added to the remaining media (100 μl). Culture plates were incubated in the humidified incubator at 37° C. and in 5% CO2 for 2 hours. Following incubation the quantity of formazan product present was determined by measuring the absorbance at 490 nm using a VERSAmax® microplate reader and SOFTmax PRO software (Molecular Devices).
(§1) Granule cell cultures were seeded at an initial density of 1×10^5 cells per well and maintained in GCSF culture media for 7 day in vitro prior to toxicant exposure. On the day of treatment, L-Glutamate, tert-butyl-hydroperoxide (TBHP), hydrogen peroxide (H2O2), ionomycin (Sigma), and MK-801 (Calbiochem, San Diego) were prepared at required concentration in the appropriate media. Cultures were exposed to toxicants for 24 hours prior to viability analysis. Cultures receiving MK-801 were pretreated for 10 minutes prior to addition of L-glutamate, and negative control cultures were treated with fresh media. For dose-dependence of oxidative-induced injury H2O2 and TBHP stock solutions were serially diluted in media to 100× concentrations immediately before each experiment. The concentration of the H2O2 stock solution was determined spectrophotometrically before each experiment based on its absorbance using the equation: C=(Ab240/ε)×DF; where C is the concentration of H2O2 (mM), Ab240 is absorbance at 240 nm, ε is the extinction coefficient (0.0394 mM^−1 cm^−1), DF is the dilution factor, and the path-length of the spectrophotometer is 1 cm. Comparative analysis of granule cell viability/lyses in GCSF and NB-B27 was assessed using the MTS reduction and LDH release assays as described above.

[2] = system: cerebellar granule cells; assay: LDH release assay of granule cell death after toxicant exposure; assay type: cell-based, rat
Procedure: The lactate dehydrogenase (LDH) released into the media was determined using Cyto Tox96® non-radioactive cytotoxicity assay (Promega). In this calorimetric assay, LDH converts lactate and nicotinamide adenine dinucleotide (NAD^+) to pyruvate and NADH, respectively. This initial reaction is coupled to a second reaction where diaphorase converts iodo-nitro-tetrazolium salt and NADH to a red colored formazan compound and NAD^+ respectively. Briefly, 50 μl of assay buffer was added to each 100 μl sample of media removed from each well prior to MTS analysis. Samples were then incubated in the dark for 30 minutes at room temperature, and then 50 μl of a stop solution (1M acetic acid) was added into each well and the absorbance at 490 nm was measured as above. Positive control samples of bovine heart LDH (800 units/ml; lot 11455502, Promega) were serially diluted into a final volume of 200 μl and assayed as described above.
as §1

[3] = system: non-neuronal cells in cerebellar cultures; assay: Inhibition of non-neuronal cell proliferation in primary cerebellar cultures (visual inspection, staining); assay type: cell-based, rat
Procedure: Based on the calculated cell numbers, cerebellar cells were serially diluted in an appropriate volume of culture media and seeded into flat-bottom 96-well tissue culture plates pre-coated with poly-L-lysine (Becton Dickinson, Bedford, Mass.). The numbers of cerebellar cells seeded ranged from 6,250 to 400,000 cells per well (0.32 cm^2) in a final volume of 200 μl. Cultures were maintained in a humidified incubator in 5% CO2 at 37° C.
After 7-30 day in vitro, cultures were washed 3 times with phosphate buffered saline (PBS) and fixed for 20-30 minutes with 4% paraformaldehyde in 0.1M sodium phosphate buffer (pH 7.4; PB). Following fixation, cells were washed 3 times with PBS, and either stained with 1% methylene blue (Sigma) in deionized water for 5 minutes and destained with deionized water or permeablized for immunostaining with 0.2% Triton X-100 in PBS. Permeablized cells were washed 3 times with PBS, incubated for 1 hour in 5% normal horse serum in PB and then incubated overnight at 4° C. with a glial fibrillary acidic protein (GFAP) antiserum (1:5000 dilution; Dako, Carpintea, Calif.). Following incubation with primary antiserum, cells were extensively washed with PBS plus 0.1% Tween-20 and immunoreactivity was visualized with NiCl/3,3′-diaminobenzidine (DAB) using the avidin-biotin-complex (ABC) method (Vector Elite-universal; Vector Laboratories, Burlingame, Calif.). […]

[4] = 400 μM H2O2, 24 hours, 7 DIV cultures in GCSF
[5] = 400 μM H2O2, 24 hours, 7 DIV cultures in NB-B27
[6] = 125 μM TBHP, 24 hours, 7 DIV cultures in GCSF
[7] = 125 μM TBHP, 24 hours, 7 DIV cultures in NB-B27

With `OO` [H2O2, hydrogen peroxide] the “neuronal cell death (MTS reduction)” value ([1]; 100 μM H2O2, 24 hours, GCSF, single experiment n=8) was “Statistically significant levels of neuronal cell death”, the MTS-reduction [1, 4] was 41.5±1.0 % of control and the MTS-reduction [1, 5] was 47±1.2 % of control. For the same compound, the “concentration at which maximal effects on granule cell viability/lysis were observed” value ([1]; 24 hours) was 400 µM, the “concentration at which significant effects on granule cell viability/lysis were initially detected” value ([1]; 24 hours) was 200 µM and the LDH-release [2, 4] was 136.9±2.8 % of control. The LDH-release [2, 5] was 125±5.0 % of control.

With `N[C@@H](CCC(=O)O)C(=O)O` [L-glutamate, L-Glutamate] the “granule cell viability (MTS reduction)” value ([1]; 500 μM L-glutamate, 24 hours, GCSF, representative single experiment) was 56.8±2 % of control cultures.

In the case of `C[C@]12N[C@H](Cc3ccccc31)c1ccccc12` [MK-801], the “viability of cultures pretreated with antagonist prior to L-glutamate exposure (MTS reduction)” value ([1]; 10 μM MK-801 pretreatment 10 minutes, then 500 μM L-glutamate 24 hours, GCSF) is reported as “not significantly different from the mock-treated control cultures”.

With `CC(C)(C)OO` [TBHP, tert-butyl-hydroperoxide] the MTS-reduction [1, 6] was 37.9±0.8 % of control, the MTS-reduction [1, 7] was 43.7±1.9 % of control and the “concentration at which maximal effects on granule cell viability/lysis were observed” value ([1]; 24 hours) was 125 µM. The “concentration at which significant effects on granule cell viability/lysis were initially detected” value ([1]; 24 hours) was 62.5 µM, the LDH-release [2, 6] was 125.4±1.4 % of control and the LDH-release [2, 7] was 122.7±5.6 % of control.

`C[C@H](CCC(=O)O)C[C@H](C)C[C@H](C)C(=O)/C=C(\O)[C@H](C)C[C@H](C)C/C=C/[C@@H](C)[C@@H](O)[C@@H](C)[C@@H](O)C[C@@H]1CC[C@@](C)([C@H]2CC[C@@](C)([C@@H](C)O)O2)O1` [ionomycin] was tested, and the “average maximal decrease in viability (MTS reduction)” value ([1]; ionomycin treatment (10 nM per FIG. 6 legend), GCSF) was 56±5 % of control.

For cytosine β-D-arabinofuranoside [AraC], the “non-neuronal cell types in cultures” value ([3]; 10 μM AraC added after 24 hour in vitro, NB-B27 or GCSF) was “less than 5%” and the “cells with morphological phenotype of small cerebellar granule cell neurons” value ([3]; 10 μM AraC added after 24 hours, 96-well plates, visual inspection) was greater than 90%.
